pEC50: −log10 of the molar value.
Biological target: T1, Human GPR120 short form (short splice variant, NM_001195755.1) (Homo sapiens, UniProt Q5NUL3)
T1 construct: expressed in transfected cells; host or cells: HEK293
T1 sequence (Q5NUL3 1-361): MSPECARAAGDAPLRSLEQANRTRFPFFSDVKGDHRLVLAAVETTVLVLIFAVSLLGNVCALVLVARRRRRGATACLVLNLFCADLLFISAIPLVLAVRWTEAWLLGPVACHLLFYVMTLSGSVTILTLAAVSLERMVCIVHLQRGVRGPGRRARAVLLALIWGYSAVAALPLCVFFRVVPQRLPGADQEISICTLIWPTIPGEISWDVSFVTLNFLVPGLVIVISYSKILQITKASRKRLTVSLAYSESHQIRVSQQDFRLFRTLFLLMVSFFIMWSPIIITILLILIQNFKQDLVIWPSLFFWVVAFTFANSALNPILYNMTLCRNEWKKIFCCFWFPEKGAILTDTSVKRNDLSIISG
Experiment: Human GPR120 Calcium Flux Assay
Type: cell-based
Settings: HEK-293 cells, 4200 cells/well, read-out: Human GPR120 Calcium Flux Assay Procedure B EC50
Outline: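 HEK293 cells stably expressing human GPR120 short form were starved 1 h and loaded with Fluo-4 NW dye with probenecid. Compound-induced calcium flux was read on FLIPR for 300 s, with the response taken as max minus min RFU. EC50 came from sigmoidal variable-slope fits.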

In the case of Cc1c(CCC(=O)O)ccc(OCC2=C(c3ccc(Cl)cc3)COCC2)c1C [ID No. 745, 3-[4-[[5-(4-chlorophenyl)-3,6-dihydro-2H-pyran-4-yl]methoxy]-2,3-dimethyl-phenyl]propanoic acid], the pEC50 was 6.96.
